According to patent US20140221207A1, “ISOLATED BACTERIAL STRAIN OF THE GENUS BURKHOLDERIA AND PESTICIDAL METABOLITES THEREFROM- FORMULATIONS AND USES” (MARRONE BIO INNOVATIONS, INC., priority 2011, published 2014):
“And” between values parts separate entries of the source, which are not always exact repeats. Equal values may be shown once. Read-outs that look alike come from different tables or passages of the source.

Key:
[1] = tested on: Burkholderia A396; type: cell-based, Burkholderia sp. A396; settings: 72-hour incubation at 25° C
Protocol: Antibiotic susceptibility of Burkholderia A396 is tested using antibiotic disks on Muller-Hinton medium as described in PML Microbiological's technical data sheet #535.

[2] = tested on: B. cepacia complex; settings: 2,621 strains in B. cepacia complex; cited from earlier work
[3] = tested on: Chlamydomonas reinhardtii; assay: Control of Chlamydomonas reinhardtii by purified compounds, fluorescence at 680 nm; type: cell-based; settings: 72 hours
Protocol: Purified compounds from Burkholderia sp. fermentation broth was tested for algaicidal activity against Chlamydomonas reinhardtii. An increasing volume of the purified compounds (20 mg/mL in ethanol) was added to a clear 48 well polystyrene plate with 750 micro liters of the specified algae growing. Each treatment was done in two replicates and the solvent used as a negative control. The plate was closed with a lid and incubated for 72 hours under constant light at room temperature. After 72 hours the fluorescence (at 680 nm) of the suspension in each well was measured using a SpectraMax M2 plate reader, and the reduction in fluorescence compared with the negative control was converted into percent control of algal growth. Each sample was visually compared to the negative control; a well that was visually clearer than the negative control was scored as active. […] Tests were run in two replicates and %. Control was calculated as a reduction of fluorescence at 680 nm compared with the negative control. Each sample was visually compared to the negative control; a well that was visually clearer than the negative control was scored as active.

[4] = tested on: Lygus hesperus; assay: 12 well plate treated green beans bioassay, Lygus hesperus late 2nd/early 3rd instar; type: in vivo; settings: green beans dipped in 0.25 mg/mL, scored at 24, 48 and 120 hours
Protocol: The insecticidal activity of the four compounds, templamide A, templamide B, FR901465 & FR901228 isolated from Burkholderia were tested in a laboratory assay using a 12 well plate with treated green beans bioassay system. The compound was dissolved in 100% ethanol to concentrations of […] and 500 μL of this sample was added to 3.5 mL of water to make a total volume of 4 mL containing 0.25 mg/mL concentration of the compound. Green beans were washed earlier in bleach solution and then sat in water to rinse. Beans were dried before using and then were cut with scissors to fit into wells of 12-well plate. With the help of forceps the beans were dunked into a 15 mL plastic falcon tube containing each treatment and then submerged in treatment for exactly one min. one bean part was put into each well and then individual late 2nd/early 3rd instar Lygus hesperus, were placed in wells with help of brush. Plate sealer was used to cover tray and hole poked into the plate sealer for aeration. The numbers of Lygus/well were counted and plates were placed on brench top. Larvae were scored at 24, 48 and 120 hours after application. […] The positive control used in this testing was Avid (Avemectin) at the rate of 13 μL/10 mL.

[5] = tested on: Two Spotted Spidermite (TSM); assay: Control of two spotted spidermite (TSM) in strawberry, field data; type: in vivo; settings: 6 oz./acre
Protocol: The efficacies of five traditional chemistry-derived and MBI 206 were evaluated for TSM control under field conditions. ‘Strawberry Festival’ transplants were set in the field in plastic mulched beds, 13 inches high and 27 inches across the top, and with 4 ft bed spacing. Overhead irrigation was applied for 10 days after setting to aid in establishment of the transplants. Trickle irrigation was used for the remainder of the experiment. Each 12.5-ft. plot consisted of 20 plants in two ten-plant rows per bed. Plots were infested from a laboratory colony in four sessions with 10 to 20 motile TSM, per plant. Each session accomplished the infestation of one block of the experiment. The experiment consisted of treatments of various rates and schedules of application of miticides, some combined with an adjuvant, and a non-treated check. Treatments were replicated four times in a RCB design. Savey and Acramite treatments were applied before TSM densities reached threshold levels (6 January); the remainder of the treatment programs began 2 wks later. Treatments were applied using a hand-held sprayer with a spray wand outfitted with a nozzle containing a 45-degree core and a number four disc.
The sprayer was pressurized by CO2, to 40 psi, and calibrated to deliver 100 gal per acre. Pre-treatment samples were taken on Day 1 and sampling continued weekly through 2 wks after the last application of treatments. Samples consisted of ten randomly selected leaflets per plot and were collected from the middle one-third stratum of the plants. Samples were transported to the laboratory where motile and egg TSM were brushed from the leaflets onto rotating sticky discs and counted on 1/10 of the disc surface to estimate average numbers per leaflet. Distinctions could not be made between viable and non-viable eggs, thus total eggs were recorded.

[6] = 5 μL of sample (20 mg/mL in ethanol) per 750 μL of algae
[7] = 5 μL of sample per 750 μL of algae
[8] = 11 μL of sample (20 mg/mL in ethanol) per 750 μL of algae
[9] = 11 μL of sample per 750 μL of algae
[10] = 22.5 μL of sample (20 mg/mL in ethanol) per 750 μL of algae
[11] = 22.5 μL of sample per 750 μL of algae, well visually clearer than negative control scored as active

Q: Which Susceptible ([1]; disk 10 μg) does the source give for `CC1(C)S[C@@H]2[C@H](NC(=O)[C@H](N)c3ccccc3)C(=O)N2[C@H]1C(=O)O` [Ampicillin] here?
A: Its Susceptible is “−”.

Q: With `CO/N=C(\C(=O)N[C@@H]1C(=O)N2C(C(=O)O)=C(COC(N)=O)CS[C@H]12)c1ccco1` [Cefuroxime] as the molecule, how does the Susceptible ([1]; disk 30 μg) read?
A: The Susceptible was “−”.

Q: With `O=C(N[C@H](CO)[C@H](O)c1ccc([N+](=O)[O-])cc1)C(Cl)Cl` [Chloramphenicol] as the molecule, how does the Susceptible ([1]; disk 30 μg) read?
A: Its Susceptible is “++”.

Q: And the “share of strains susceptible” value [2]?
A: Its value is 15%.

Q: What does the source list for `O=C(O)c1cn(C2CC2)c2cc(N3CCNCC3)c(F)cc2c1=O` [Ciprofloxacin]?
A: Susceptible ([1]; disk 5 μg): ++; share of strains susceptible [2]: 5%

Q: With `CC[C@H]1OC(=O)[C@H](C)[C@@H](O[C@H]2C[C@@](C)(OC)[C@@H](O)[C@H](C)O2)[C@H](C)[C@@H](O[C@@H]2O[C@H](C)C[C@H](N(C)C)[C@H]2O)[C@](C)(O)C[C@@H](C)C(=O)[C@H](C)[C@@H](O)[C@]1(C)O` [Erythromycin] as the molecule, how does the Susceptible ([1]; disk 15 μg) read?
A: The Susceptible was “−”.

Q: For `C[C@@H](O)[C@H]1C(=O)N2C(C(=O)O)=C(SCCN=CN)C[C@H]12` [Imipenem], which Susceptible ([1]; disk 10 μg) is on record?
A: Its Susceptible is “+++”.

Q: Which Susceptible ([1]; disk 30 μg) does the source give for `NC[C@H]1O[C@H](O[C@H]2[C@H](O)[C@@H](O[C@H]3O[C@H](CO)[C@@H](O)[C@H](N)[C@H]3O)[C@H](N)C[C@@H]2N)[C@H](O)[C@@H](O)[C@@H]1O` [Kanamycin] here?
A: Its Susceptible is “+++”.

Q: Which Susceptible ([1]; disk 30 μg) does the source give for `CN(C)[C@@H]1C(O)=C(C(N)=O)C(=O)[C@@]2(O)C(O)=C3C(=O)c4c(O)cccc4[C@@](C)(O)[C@H]3[C@H](O)[C@@H]12` [Oxytetracycline] here?
A: The Susceptible was “−”.

Q: With `CCN1CCN(C(=O)N[C@@H](C(=O)N[C@@H]2C(=O)N3[C@@H]2SC(C)(C)[C@@H]3C(=O)O)c2ccccc2)C(=O)C1=O` [Piperacillin] as the molecule, how does the Susceptible ([1]; disk 100 μg) read?
A: Its Susceptible is “+++”.

Q: With `[H]/N=C(/N)N[C@H]1[C@H](O)[C@@H](O)[C@H](O[C@@H]2O[C@@H](C)[C@](O)(C=O)[C@H]2O[C@@H]2O[C@@H](CO)[C@H](O)[C@@H](O)[C@@H]2NC)[C@@H](N/C(N)=N\[H])[C@@H]1O` [Streptomycin] as the molecule, how does the Susceptible ([1]; disk 10 μg) read?
A: The Susceptible was “−”.

Q: Which “% Control” value [3, 6] does the source give for `CCC(=O)OC(C)/C=C\C(=O)NC1CC(C)C(C/C=C(C)/C=C/C2OC(C)(O)C(O)C(O)(CO)C2O)OC1C` (centres unmarked) [Templamide A] here?
A: The value was −67.61%.

Q: And the Visual [3, 7]?
A: Its Visual is “Not Active”.

Q: And the “% Control” value [3, 8]?
A: The value was −21.16%.

Q: What about the Visual [3, 9] of the same molecule?
A: Its Visual is “Not Active”.

Q: And the “% Control” value [3, 10]?
A: The value was −151.6%.

Q: And the Visual [3, 11]?
A: The Visual was “Not Active”.

Q: And the mortality [4]?
A: Its mortality is “inactive”.

Q: Which “% Control” value [3, 6] does the source give for `CCC(=O)OC(C)/C=C\C(=O)NC1CC(C)C(C/C=C(C)/C=C/C2OC(C)(O)C(O)C3(CO3)C2O)OC1C` (centres unmarked) [Templamide B] here?
A: Its value is 95.05%.

Q: What about the Visual [3, 7] of the same molecule?
A: Its Visual is “Active”.

Q: And the “% Control” value [3, 8]?
A: Its value is 99.34%.

Q: And the Visual [3, 9]?
A: Its Visual is “Active”.

Q: And the “% Control” value [3, 10]?
A: The value was 98.3%.

Q: What about the Visual [3, 11] of the same molecule?
A: Its Visual is “Active”.

Q: And the mortality at 250 µg/mL ([4]; Lygus hesperus)?
A: The mortality at 250 µg/mL was 69.2%.

Q: Which results are given for `COC(=O)c1nc(CC(C)C)oc1-c1c[nH]c2ccccc12` [Templazole A, templazole A]?
A: % Control [3, 6]: 99.18% and 98.69%; Visual [3, 7]: Active; % Control [3, 8]: 98.73% and 98.31%; Visual [3, 9]: Active; % Control [3, 10]: 98.15% and 95.71%; Visual [3, 11]: Active

Q: Which Susceptible ([1]; disk 30 μg) does the source give for `CN(C)[C@@H]1C(O)=C(C(N)=O)C(=O)[C@@]2(O)C(O)=C3C(=O)c4c(O)cccc4[C@@](C)(O)[C@H]3C[C@@H]12` [Tetracycline] here?
A: Its Susceptible is “−”.

Q: Which “No. egg TSM/leaflet” value ([5]; Day 1 (pre-treatment sample)) does the source give for `C[C@@H]1[C@@H](c2ccc(Cl)cc2)SC(=O)N1C(=O)NC1CCCCC1` [hexythiazox] here?
A: The value was 2.

Q: And the “No. egg TSM/leaflet” value ([5]; Day 9)?
A: Its value is 8.5.

Q: What about the “No. egg TSM/leaflet” value ([5]; Day 16) of the same molecule?
A: The value was 15.

Q: What about the “No. egg TSM/leaflet” value ([5]; Day 22) of the same molecule?
A: The value was 17.

Q: And the “No. egg TSM/leaflet” value ([5]; Day 30)?
A: Its value is 22.

Q: What about the “No. egg TSM/leaflet” value ([5]; Day 37) of the same molecule?
A: Its value is 71.5.

Q: And the “No. egg TSM/leaflet” value ([5]; Day 44)?
A: The value was 128.5.

Q: What about the “No. egg TSM/leaflet” value ([5]; Day 52) of the same molecule?
A: Its value is 281.5.

Q: And the “No. egg TSM/leaflet” value ([5]; Day 58)?
A: Its value is 393.5.

Q: Which Susceptible ([1]; disk 10 μg) does the source give for Gentamicin here?
A: Its Susceptible is “−”.

Q: For Penicillin, which Susceptible ([1]; disk 10 μg) is on record?
A: Its Susceptible is “−”.

Q: Which results are given for templazole B?
A: % Control [3, 6]: −102.1%; Visual [3, 7]: Not Active; % Control [3, 8]: 52.95%; Visual [3, 9]: Not Active; % Control [3, 10]: −30.79%; Visual [3, 11]: Not Active
